Key:
Type in all cases: cell-based
[1] = test system: RSV-Fluc (Respiratory Syncytial virus strain A2 containing the firefly luciferase reporter); test: microbe, parasite or virus in culture; details: human respiratory syncytial virus, 72 h, NHBE cells, three days
[2] = test system: RSV strain A2; test: RSV antiviral assay (Hep2), EC50-Hep2/B1-384; details: human respiratory syncytial virus, HEp-2, 96 h; Hep2 cells, 4 days, Cell-Titer Glo
[3] = in vitro; details: human
Method: The cytotoxicity of compounds was determined in A549-hACE2 cells in the following manner. Compounds (200 nL) were spotted onto 384-well Grenier plates prior to seeding 5000 A549-hACE2 cells/well in a volume of 40 μL culture medium. The plates were incubated at 37° C. for 48 hours with 5% CO2. On day 2, 40 μL of CellTiter-Glo (Promega) was added and mixed 5 times.

[4] = test system: SARS-CoV-2-Nluc viruses; test: microbe, parasite or virus in culture; details: Severe acute respiratory syndrome coronavirus 2, 48 h; read-out: SARS-CoV2 EC50

| SMILES | EC50 [1] [nM] | EC50 [2] [nM] | CC50 at 48 h [3] [nM] | EC50 [4] [nM] |
| --- | --- | --- | --- | --- |
| CC(=O)OC[C@H]1O[C@@](C#N)(c2ccc3c(N)ncnn23)[C@H](OC(C)=O)[C@@H]1OC(C)=O [Compound 2, (2R,3R,4R,5R)-5-(acetoxymethyl)-2-(4-aminopyrrolo[2,1-f][1,2,4]triazin-7-yl)-2-cyanotetrahydrofuran-3,4-diyl diacetate] | 287 | 537 | > 50000 | 1900 |
| CCC(=O)OC[C@H]1O[C@@](C#N)(c2ccc3c(N)ncnn23)[C@H](OC(=O)CC)[C@@H]1OC(=O)CC [Compound 3, (2R,3R,4R,5R)-2-(4-aminopyrrolo[2,1-f][1,2,4]triazin-7-yl)-2-cyano-5-((propionyloxy)methyl)tetrahydrofuran-3,4-diyl dipropionate] | 831 | 425 | > 100000 | 3100 |
| N#C[C@@]1(c2ccc3c(N)ncnn23)O[C@H](CO)[C@H]2OC(c3ccccc3)O[C@H]21 (stereo partly drawn) [Compound 4, (3aR,4R,6R,6aR)-4-(4-aminopyrrolo[2,1-f][1,2,4]triazin-7-yl)-6-(hydroxymethyl)-2-phenyltetrahydrofuro[3,4-d][1,3]dioxole-4-carbonitrile] | – | 26300 | > 100000 | > 10000 |
| CC(C)C(=O)OC[C@H]1O[C@@](C#N)(c2ccc3c(N)ncnn23)[C@@H]2OC(c3ccccc3)O[C@@H]21 (stereo partly drawn) [Compound 5, ((3aR,4R,6R,6aR)-6-(4-aminopyrrolo[2,1-f][1,2,4]triazin-7-yl)-6-cyano-2-phenyltetrahydrofuro[3,4-d][1,3]dioxol-4-yl)methyl isobutyrate] | – | 13100 | > 100000 | > 10000 |
| CC(C)[C@H](N)C(=O)OC[C@H]1O[C@@](C#N)(c2ccc3c(N)ncnn23)[C@@H]2OC(c3ccccc3)O[C@@H]21 (stereo partly drawn) [Compound 6, ((3aR,4R,6R,6aR)-6-(4-aminopyrrolo[2,1-f][1,2,4]triazin-7-yl)-6-cyano-2-phenyltetrahydrofuro[3,4-d][1,3]dioxol-4-yl)methyl L-valinate] | – | 23600 | > 71200 | > 10000 |
| CC(C)(N)C(=O)OC[C@H]1O[C@@](C#N)(c2ccc3c(N)ncnn23)[C@H](O)[C@@H]1O [Compound 7, ((2R,3S,4R,5R)-5-(4-aminopyrrolo[2,1-f][1,2,4]triazin-7-yl)-5-cyano-3,4-dihydroxytetrahydrofuran-2-yl)methyl 2-amino-2-methylpropanoate] | – | 859 | > 50000 | 3100 |
| CC(C)[C@@H](N)C(=O)OC[C@H]1O[C@@](C#N)(c2ccc3c(N)ncnn23)[C@H](O)[C@@H]1O [Compound 9, ((2R,3S,4R,5R)-5-(4-aminopyrrolo[2,1-f][1,2,4]triazin-7-yl)-5-cyano-3,4-dihydroxytetrahydrofuran-2-yl)methyl D-valinate] | – | 798 | > 50000 | 2400 |
| N#C[C@@]1(c2ccc3c(N)ncnn23)O[C@H](COC(=O)[C@@H](N)Cc2ccccc2)[C@@H](O)[C@H]1O [Compound 10, ((2R,3S,4R,5R)-5-(4-aminopyrrolo[2,1-f][1,2,4]triazin-7-yl)-5-cyano-3,4-dihydroxytetrahydrofuran-2-yl)methyl L-phenylalaninate] | – | 1200 | > 100000 | 2200 |
| N#C[C@@]1(c2ccc3c(N)ncnn23)O[C@H](CO)[C@H]2OC(=O)O[C@H]21 [Compound 13, (3aR,4R,6R,6aR)-4-(4-aminopyrrolo[2,1-f][1,2,4]triazin-7-yl)-6-(hydroxymethyl)-2-oxotetrahydrofuro[3,4-d][1,3]dioxole-4-carbonitrile] | – | 506 | > 50000 | 1300 |
| N#C[C@@]1(c2ccc3c(N)ncnn23)O[C@H](COC(=O)C[C@@H](N)Cc2ccccc2)[C@@H](O)[C@H]1O [Compound 14, ((2R,3S,4R,5R)-5-(4-aminopyrrolo[2,1-f][1,2,4]triazin-7-yl)-5-cyano-3,4-dihydroxytetrahydrofuran-2-yl)methyl (S)-3-amino-4-phenylbutanoate] | – | 825 | > 50000 | 2700 |
